From US20240018132A1, “5-HYDROXY-1,4-NAPHTHALENEDIONE FOR USE IN THE TREATMENT OF CANCER” (GODAVARI BIOREFINERIES LIMITED, priority 2020, published 2024)

Legend:
MDAMB231 [1] = test: In vitro antiproliferative assay (MTT assay), breast cancer cell line; assay type: cell-based; conditions: Homo sapiens, MDA-MB-231, 48 h, MTT assay, breast cancer MDAMB231, 48 hrs drug incubation
Description: (§1) MTT assay is a simple and sensitive assay where, metabolic reducing activity of the cells is measured. The increase of this activity in time is taken as a parameter of cell growth. If treatment with a drug impairs this increase, the action is a consequence of growth inhibition, cell killing or both. […] All cell lines were cultured in a 37° C. incubator with a 5% CO2 environment. Compounds were dissolved in DMSO with a concentration of 0.1M (stock solution). Cells were seeded into 96-well plates at suitable plating efficiency.
(§2) Following plating efficiencies were standardized for MTT assay:
(§3) In the MTT procedure, the cells were plated in 96 well plates as per predetermined plating efficiency (Table1). The plates were then incubated for 24 hrs in 5% CO2 atmosphere at 37° C. Appropriate concentrations of the drugs were then added to the plate and further incubation was carried out for 48 hrs (in 5% CO2 atmosphere at 37° C.). The assay plate was then centrifuged twice at 3000 rpm for 3 mins and supernatant was then discarded. 100 ul of MTT solution (0.5 mg/ml) was then added to each well of the plate and it was further incubated for 4 hrs (in 5% CO2 atmosphere at 37° C.) Following 4 hr incubation, the plate was then centrifuged twice, and supernatant was aspirated off very carefully. 200 ul of DMSO was then added to each well to solubilize. MTT crystals and mixed well by shaking the plate. XY graph of log percent viability was then plotted against log drug concentration.

PC3 [2] = test: In vitro antiproliferative assay (MTT assay), prostate cancer cell line; assay type: cell-based; conditions: Homo sapiens, PC-3, 48 h, MTT assay, prostate cancer PC3, 48 hrs drug incubation
Description: as §1, §2, §3

Human lymphocytes = test: Lymphocyte assay (MTT on normal cells); assay type: cell-based; conditions: Lymphocyte; human peripheral blood lymphocytes, MTT procedure
Description: Human lymphocytes were isolated from the peripheral blood. A pure population of lymphocytes was obtained based on differential centrifugation, in which diluted defibrinated blood was layered on a solution of sodium diatrizoate and polysucrose (HiSep LSM 1077) and centrifuged at low speeds for 30 mins.
Procedure: The separation of lymphocytes from fresh defibrinated blood was performed by the procedure described below: • 1. Diluted defibrinated fresh blood was overlaid gradually on (HiSeP LSM1077) and centrifuged at low speed for 30 mins. • 2. The lymphocyte layer (the buffy coat) was carefully removed in a new collection tube. • 3. The buffy coat was given another wash, by the diluent buffer Dulbecco's phosphate buffered saline (D.P.B.S) • 4. The supernatant was discarded and the pellet was resuspended in D.P.B.S. • 5. The viability of cells was checked by Haemocytometer. • 6. Cells with purity and viability of more than 95% were taken for the experiment. • 7. Purified lymphocytes were diluted at a concentration of 0.7 million/ml with sterile D.P.B.S and MTT procedure was performed exactly as described earlier.

MDAMB231 [3] = test: In vitro sphere-forming assay (cancer stem cells), Mammosphere media; conditions: for viability at 0.0025 µM / viability at 0.025 µM / viability at 0.25 µM / viability at 2.5 µM / viability at 25 µM / viability at 250 µM: Homo sapiens, MDA-MB-231, read-out: % Viability of spheres (MDAMB231); for 3D sphere count of MDAMB231: Mammosphere media, 2000 cells/well, n = 6 ± S.D
PC3 [4] = test: In vitro sphere-forming assay (cancer stem cells), Prostosphere media; conditions: for viability at 0.0025 µM / viability at 0.025 µM / viability at 0.25 µM / viability at 2.5 µM / viability at 25 µM / viability at 250 µM: Homo sapiens, PC-3, read-out: % Viability of spheres (PC3); for 3D sphere count of PC3: Prostosphere media, 2000 cells/well, n = 6 ± S.D

Row | Compound | IC50 (MDAMB231 [1]) [nM] | IC50 (PC3 [2]) [nM] | IC50 (Human lymphocytes) [nM] | viability at 0.0025 µM (MDAMB231 [3]) [%] | viability at 0.025 µM (MDAMB231 [3]) [%] | viability at 0.25 µM (MDAMB231 [3]) [%] | viability at 2.5 µM (MDAMB231 [3]) [%] | viability at 25 µM (MDAMB231 [3]) [%] | 3D sphere count of MDAMB231 (MDAMB231 [3]; drug 0.025 uM) | 3D sphere count of MDAMB231 (MDAMB231 [3]; drug 0.25 uM) | 3D sphere count of MDAMB231 (MDAMB231 [3]; drug 2.5 uM) | 3D sphere count of MDAMB231 (MDAMB231 [3]; drug 25 uM) | viability at 0.025 µM (PC3 [4]) [%] | viability at 0.25 µM (PC3 [4]) [%] | viability at 2.5 µM (PC3 [4]) [%] | viability at 25 µM (PC3 [4]) [%] | 3D sphere count of PC3 (PC3 [4]; drug 0.025 uM) | 3D sphere count of PC3 (PC3 [4]; drug 0.25 uM) | 3D sphere count of PC3 (PC3 [4]; drug 2.5 uM) | 3D sphere count of PC3 (PC3 [4]; drug 25 uM) | further results
1 | O=C1C(c2ccc3c(c2)OCO3)=CC(=O)c2c(OCCCC(=O)N3CCOCC3)cccc21 [Formula 69] | 2750 | 2120 | 12100 | 86 | 70 | 57 | 35 | 19 | 58(±3) | 47(±3) | 29(±3) | 16(±2) | 65 | 49 | 35 | 21 | 53(±3) | 40(±2) | 29(±2) | 17(±3) | 3D sphere count of MDAMB231 (MDAMB231 [3]; drug 0.0025 uM): 71(±3); viability at 0.0025 µM (PC3 [4]): 93%; 3D sphere count of PC3 (PC3 [4]; drug 0.0025 uM): 76(±3)
2 | O=C(O)CCCOc1cccc2c1C(=O)C=C(Nc1ccc3c(c1)OCO3)C2=O [Formula 70] | 3020 | 2230 | 5410 | 86 | 74 | 62 | 41 | 24 | 61(±3) | 51(±3) | 34(±3) | 20(±2) | 67 | 50 | 41 | 31 | 55(±2) | 41(±3) | 34(±4) | 25(±3) | 3D sphere count of MDAMB231 (MDAMB231 [3]; drug 0.0025 uM): 71(±3); viability at 0.0025 µM (PC3 [4]): 95%; 3D sphere count of PC3 (PC3 [4]; drug 0.0025 uM): 78(±2)
3 | O=C1C(c2ccc3c(c2)OCO3)=CC(=O)c2c(OCCN3CCOCC3)cccc21 [Formula 1, 5-(2-morpholinoethoxy)-2-(benzo[d][1,3]dioxol-6-yl)naphthalene-1,4-dione] | 656 | 579 | 1490 | – | 83 | 62 | 44 | 31 | 64(±5) | 48(±4) | 34(±4) | 24(±4) | 80 | 62 | 45 | 30 | 65(±3) | 51(±3) | 37(±3) | 25(±3) | viability at 250 µM (MDAMB231 [3]): 13%; 3D sphere count of MDAMB231 (MDAMB231 [3]; drug 250 uM): 10(±2); viability at 250 µM (PC3 [4]): 16%; 3D sphere count of PC3 (PC3 [4]; drug 250 uM): 13(±3)
4 | COc1ccc(NC2=CC(=O)c3c(OCCN4CCOCC4)cccc3C2=O)cc1 [Formula 37, 5-(2-morpholinoethoxy)-2-(4-methoxyphenylamino) naphthalene-1,4-dione] | 4610 | 4440 | – | – | 82 | 66 | 56 | 39 | 82(±4) | 66(±5) | 56(±4) | 39(±3) | 89 | 69 | 56 | 37 | 89(±3) | 69(±3) | 56(±4) | 37(±4) | viability at 250 µM (MDAMB231 [3]): 23%; 3D sphere count of MDAMB231 (MDAMB231 [3]; drug 250 uM): 23(±3); viability at 250 µM (PC3 [4]): 20%; 3D sphere count of PC3 (PC3 [4]; drug 250 uM): 20(±4)

Now those with a lower IC50 (MDAMB231 [1]), led by results:

Row | IC50 (MDAMB231 [1]) [nM] | IC50 (PC3 [2]) [nM] | Compound | IC50 (Human lymphocytes) [nM] | viability at 0.0025 µM (MDAMB231 [3]) [%] | viability at 0.025 µM (MDAMB231 [3]) [%] | viability at 0.25 µM (MDAMB231 [3]) [%] | viability at 2.5 µM (MDAMB231 [3]) [%] | viability at 25 µM (MDAMB231 [3]) [%] | 3D sphere count of MDAMB231 (MDAMB231 [3]; drug 0.025 uM) | 3D sphere count of MDAMB231 (MDAMB231 [3]; drug 0.25 uM) | 3D sphere count of MDAMB231 (MDAMB231 [3]; drug 2.5 uM) | 3D sphere count of MDAMB231 (MDAMB231 [3]; drug 25 uM) | viability at 0.025 µM (PC3 [4]) [%] | viability at 0.25 µM (PC3 [4]) [%] | viability at 2.5 µM (PC3 [4]) [%] | viability at 25 µM (PC3 [4]) [%] | 3D sphere count of PC3 (PC3 [4]; drug 0.025 uM) | 3D sphere count of PC3 (PC3 [4]; drug 0.25 uM) | 3D sphere count of PC3 (PC3 [4]; drug 2.5 uM) | 3D sphere count of PC3 (PC3 [4]; drug 25 uM) | further results
5 | 451 | 246 | O=C1C(c2ccc(F)cc2)=CC(=O)c2c(OCCN3CCOCC3)cccc21 [Formula 7, 5-(2-morpholinoethoxy)-2-(4-fluorophenyl) naphthalene-1,4-dione] | – | – | 83 | 60 | 43 | 31 | 59(±3) | 43(±3) | 31(±3) | 22(±3) | 71 | 50 | 35 | 21 | 57(±3) | 40(±3) | 28(±2) | 17(±3) | viability at 250 µM (MDAMB231 [3]): 15%; 3D sphere count of MDAMB231 (MDAMB231 [3]; drug 250 uM): 11(±3); viability at 250 µM (PC3 [4]): 11%; 3D sphere count of PC3 (PC3 [4]; drug 250 uM): 9(±2)
6 | 352 | 482 | O=C1C=C(Oc2ccc(F)cc2)C(=O)c2c(OCCN3CCOCC3)cccc21 [Formula 80, 8-(2-morpholinoethoxy)-2-(4fluorophenoxy)naphthalene-1,4-dione] | – | 75 | 53 | 39 | 23 | 15 | 48(±3) | 35(±4) | 21(±3) | 14(±4) | 56 | 37 | 27 | 17 | 45(±3) | 30(±2) | 22(±4) | 14(±3) | 3D sphere count of MDAMB231 (MDAMB231 [3]; drug 0.0025 uM): 68(±4); viability at 0.0025 µM (PC3 [4]): 73%; 3D sphere count of PC3 (PC3 [4]; drug 0.0025 uM): 59(±3)
